Measurements reported in ChEMBL document CHEMBL1201862, “PubChem BioAssay data set” (2004).
Activity calls are given as the source filed them.

Assays:
[1] = target: Peroxisome proliferator-activated receptor gamma/Nuclear receptor coactivator 2 (Homo sapiens, UniProt P37231); assay type: functional;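 note: agonist potency for raising coactivator recruitment to the receptor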
[2] = target: Peroxisome proliferator-activated receptor gamma/Nuclear receptor coactivator 1 (Homo sapiens, UniProt P37231); assay type: functional;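 note: agonist potency as compounds enhance coactivator SRC-1 recruitment to PPARgamma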
[3] = target: Peroxisome proliferator-activated receptor gamma/Nuclear receptor coactivator 3 (Homo sapiens, UniProt P37231); assay type: functional;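 note: agonist potency for raising coactivator recruitment to the receptor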
[4] = mitochondrial function rescue without frataxin homolog – Friedreich's ataxia, plus single-dose screen, dose response (AID 1465); assay type: functional;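 note: yeast depleted of Yfh1p frataxin homolog grown on glycerol needing respiration; WST-1 tetrazolium dye reduction as measure of cellular dehydrogenase metabolic activity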
[5] = target: T1, Replicative DNA helicase DnaB (Mycobacterium tuberculosis, UniProt P9WMR3); assay: DnaB intein splicing inhibitors, dose response, biochemical, cell-free fluorescence (AID 449749); assay type: functional
T1 sequence (P9WMR3 whole entry): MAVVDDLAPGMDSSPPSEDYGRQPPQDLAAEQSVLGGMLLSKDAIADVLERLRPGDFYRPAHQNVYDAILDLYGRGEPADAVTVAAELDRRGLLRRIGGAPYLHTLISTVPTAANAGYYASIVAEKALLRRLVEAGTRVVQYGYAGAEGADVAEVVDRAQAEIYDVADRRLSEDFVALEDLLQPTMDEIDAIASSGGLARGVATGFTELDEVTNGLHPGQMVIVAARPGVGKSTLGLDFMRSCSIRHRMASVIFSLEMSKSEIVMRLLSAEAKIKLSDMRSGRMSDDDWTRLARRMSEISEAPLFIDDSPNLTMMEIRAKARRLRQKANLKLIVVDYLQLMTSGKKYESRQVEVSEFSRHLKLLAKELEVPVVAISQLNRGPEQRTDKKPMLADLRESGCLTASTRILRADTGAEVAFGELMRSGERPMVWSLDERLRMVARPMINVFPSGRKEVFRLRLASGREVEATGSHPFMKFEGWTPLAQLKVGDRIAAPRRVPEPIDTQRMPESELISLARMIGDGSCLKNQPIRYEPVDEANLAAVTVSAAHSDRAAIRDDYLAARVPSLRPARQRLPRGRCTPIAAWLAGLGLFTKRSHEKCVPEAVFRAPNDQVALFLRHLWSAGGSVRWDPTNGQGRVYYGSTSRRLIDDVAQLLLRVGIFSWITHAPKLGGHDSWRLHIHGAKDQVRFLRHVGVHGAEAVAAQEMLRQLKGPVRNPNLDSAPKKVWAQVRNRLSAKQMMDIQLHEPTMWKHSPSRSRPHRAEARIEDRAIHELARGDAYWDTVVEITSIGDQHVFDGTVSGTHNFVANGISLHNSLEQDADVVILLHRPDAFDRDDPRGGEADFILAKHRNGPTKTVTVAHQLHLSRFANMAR

[6] = system: Streptococcus sp. 'group A'; assay: Streptococcus pyogenes SK(-)GAS viability under kanamycin – luminescence, BacTiterGlo, confirmation, counter-screen for streptokinase expression inhibitor project, dose response (AID 1900); assay type: functional, organism-based
[7] = system: Streptococcus; assay: GAS UMAA2166 growth inhibition – luminescence, BacTiterGlo, counter-screen for streptokinase expression inhibitor project, dose response (AID 1915); assay type: functional, organism-based;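 note: potency for reduction of bacterial viability or growth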
[8] = target: T2, Protein RecA (Mycobacterium tuberculosis, UniProt P9WHJ3); assay: Fluorescence Cell-Free Homogeneous Dose Retest to Identify Inhibitors of RecA-Intein Splicing Activity. [Related pubchem assays (depositor defined):AID2097, AID2223, AID489010, AID492950]; assay type: functional
T2 sequence (P9WHJ3 whole entry): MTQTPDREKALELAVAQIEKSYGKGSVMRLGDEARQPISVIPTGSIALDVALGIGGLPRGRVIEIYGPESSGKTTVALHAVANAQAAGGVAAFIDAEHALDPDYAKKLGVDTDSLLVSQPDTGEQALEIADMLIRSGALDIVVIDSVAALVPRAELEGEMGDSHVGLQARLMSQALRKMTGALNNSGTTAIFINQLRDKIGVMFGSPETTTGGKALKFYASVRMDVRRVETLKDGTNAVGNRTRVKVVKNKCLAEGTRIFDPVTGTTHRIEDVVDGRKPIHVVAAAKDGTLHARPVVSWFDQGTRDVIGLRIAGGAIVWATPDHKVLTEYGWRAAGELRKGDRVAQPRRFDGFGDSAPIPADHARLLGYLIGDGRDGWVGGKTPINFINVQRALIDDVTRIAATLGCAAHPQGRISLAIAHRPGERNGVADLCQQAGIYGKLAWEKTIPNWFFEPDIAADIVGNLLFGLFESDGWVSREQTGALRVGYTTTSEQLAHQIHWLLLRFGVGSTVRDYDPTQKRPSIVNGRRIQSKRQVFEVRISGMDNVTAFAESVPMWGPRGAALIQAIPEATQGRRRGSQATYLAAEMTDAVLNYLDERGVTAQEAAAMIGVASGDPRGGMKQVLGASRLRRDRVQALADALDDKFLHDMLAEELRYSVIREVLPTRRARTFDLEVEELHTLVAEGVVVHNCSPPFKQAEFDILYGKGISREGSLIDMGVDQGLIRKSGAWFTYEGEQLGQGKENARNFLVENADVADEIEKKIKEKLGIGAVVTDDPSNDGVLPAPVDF

[9] = target: T3, Streptokinase A (Streptococcus pyogenes serotype M1, UniProt P10520); assay: viability-normalized secreted streptokinase activity reduction – plasminogen activation absorbance, OD405, dose response (AID 1914); assay type: functional, Streptococcus pyogenes M1 GAS;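 note: secreted streptokinase activity via plasminogen activation per viability signal from cell pellet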
T3 sequence (P10520 whole entry): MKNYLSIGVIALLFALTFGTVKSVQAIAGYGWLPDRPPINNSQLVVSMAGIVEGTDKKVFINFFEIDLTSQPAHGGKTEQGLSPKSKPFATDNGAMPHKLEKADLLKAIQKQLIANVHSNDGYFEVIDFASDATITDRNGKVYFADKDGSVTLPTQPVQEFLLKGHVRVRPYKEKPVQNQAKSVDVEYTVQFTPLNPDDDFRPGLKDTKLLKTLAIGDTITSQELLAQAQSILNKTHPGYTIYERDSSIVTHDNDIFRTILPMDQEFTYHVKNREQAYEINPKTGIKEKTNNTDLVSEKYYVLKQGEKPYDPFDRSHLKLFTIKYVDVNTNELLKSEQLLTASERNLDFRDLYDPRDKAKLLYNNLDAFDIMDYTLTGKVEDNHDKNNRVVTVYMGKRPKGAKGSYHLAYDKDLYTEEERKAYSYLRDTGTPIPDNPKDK

[10] = microbe, parasite or virus in culture; assay type: functional; conditions: Mycobacterium tuberculosis
[11] = A High Throughput Confirmatory Assay used to Identify Novel Compounds that Inhibit Mycobacterium Tuberculosis in the absence of Glycerol.; assay type: functional
[12] = target: Neuropeptide Y receptor type 2 (Homo sapiens, UniProt P49146); assay type: functional, cell-based;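 note: HEK293 cells expressing the receptor and a CNG channel; stimulus was NPY near EC95 followed by isoproterenol to raise cAMP; antagonist potency measured as restoring cAMP signal that NPY suppresses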
[13] = target: Luciferin 4-monooxygenase (Photinus pyralis, UniProt P08659); assay: inhibition of purified Photinus pyralis luciferase – biochemical, luminescence, dose response (AID 1891)
[14] = Luminescence Cell-Based Dose Confirmation HTS to Identify Inhibitors of Platelet Dense Granule Release. [Related pubchem assays: 1663 (Primary HTS), 1678 (Summary of Project)]; assay type: functional
[15] = target: Neuropeptide Y receptor type 1 (Homo sapiens, UniProt P25929); assay type: functional;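 note: HEK293 cells with a CNG channel challenged with NPY then isoproterenol; potency as antagonist that reverses NPY suppression of cAMP signal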
[16] = target: Cytochrome P450 2D6 (Homo sapiens, UniProt P10635); assay: qHTS Assay for Inhibitors and Substrates of Cytochrome P450 2D6. [Related pubchem assays: 410 ]; assay type: ADME; conditions: read-out: Potency
[17] = target: Cytochrome P450 2C19 (Homo sapiens, UniProt P33261); assay: qHTS Assay for Inhibitors and Substrates of Cytochrome P450 2C19. [Related pubchem assays: 410 ]; assay type: ADME; conditions: read-out: Potency

Sequence of Peroxisome proliferator-activated receptor gamma/Nuclear receptor coactivator 2 (P37231 whole entry): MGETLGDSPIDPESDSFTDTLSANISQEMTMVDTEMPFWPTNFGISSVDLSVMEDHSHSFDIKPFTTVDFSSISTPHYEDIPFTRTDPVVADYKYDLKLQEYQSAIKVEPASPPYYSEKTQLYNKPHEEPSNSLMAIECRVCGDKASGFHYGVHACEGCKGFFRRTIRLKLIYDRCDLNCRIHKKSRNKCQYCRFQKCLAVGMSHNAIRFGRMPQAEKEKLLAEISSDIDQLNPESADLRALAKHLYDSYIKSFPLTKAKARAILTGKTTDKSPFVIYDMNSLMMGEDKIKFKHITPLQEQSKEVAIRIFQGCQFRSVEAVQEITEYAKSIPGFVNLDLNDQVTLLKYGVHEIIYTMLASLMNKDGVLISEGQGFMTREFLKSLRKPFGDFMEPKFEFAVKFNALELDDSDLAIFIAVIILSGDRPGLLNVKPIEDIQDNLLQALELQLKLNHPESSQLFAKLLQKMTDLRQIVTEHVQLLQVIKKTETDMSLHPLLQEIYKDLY
Sequence of Peroxisome proliferator-activated receptor gamma/Nuclear receptor coactivator 2 (Q15596 whole entry, further chain): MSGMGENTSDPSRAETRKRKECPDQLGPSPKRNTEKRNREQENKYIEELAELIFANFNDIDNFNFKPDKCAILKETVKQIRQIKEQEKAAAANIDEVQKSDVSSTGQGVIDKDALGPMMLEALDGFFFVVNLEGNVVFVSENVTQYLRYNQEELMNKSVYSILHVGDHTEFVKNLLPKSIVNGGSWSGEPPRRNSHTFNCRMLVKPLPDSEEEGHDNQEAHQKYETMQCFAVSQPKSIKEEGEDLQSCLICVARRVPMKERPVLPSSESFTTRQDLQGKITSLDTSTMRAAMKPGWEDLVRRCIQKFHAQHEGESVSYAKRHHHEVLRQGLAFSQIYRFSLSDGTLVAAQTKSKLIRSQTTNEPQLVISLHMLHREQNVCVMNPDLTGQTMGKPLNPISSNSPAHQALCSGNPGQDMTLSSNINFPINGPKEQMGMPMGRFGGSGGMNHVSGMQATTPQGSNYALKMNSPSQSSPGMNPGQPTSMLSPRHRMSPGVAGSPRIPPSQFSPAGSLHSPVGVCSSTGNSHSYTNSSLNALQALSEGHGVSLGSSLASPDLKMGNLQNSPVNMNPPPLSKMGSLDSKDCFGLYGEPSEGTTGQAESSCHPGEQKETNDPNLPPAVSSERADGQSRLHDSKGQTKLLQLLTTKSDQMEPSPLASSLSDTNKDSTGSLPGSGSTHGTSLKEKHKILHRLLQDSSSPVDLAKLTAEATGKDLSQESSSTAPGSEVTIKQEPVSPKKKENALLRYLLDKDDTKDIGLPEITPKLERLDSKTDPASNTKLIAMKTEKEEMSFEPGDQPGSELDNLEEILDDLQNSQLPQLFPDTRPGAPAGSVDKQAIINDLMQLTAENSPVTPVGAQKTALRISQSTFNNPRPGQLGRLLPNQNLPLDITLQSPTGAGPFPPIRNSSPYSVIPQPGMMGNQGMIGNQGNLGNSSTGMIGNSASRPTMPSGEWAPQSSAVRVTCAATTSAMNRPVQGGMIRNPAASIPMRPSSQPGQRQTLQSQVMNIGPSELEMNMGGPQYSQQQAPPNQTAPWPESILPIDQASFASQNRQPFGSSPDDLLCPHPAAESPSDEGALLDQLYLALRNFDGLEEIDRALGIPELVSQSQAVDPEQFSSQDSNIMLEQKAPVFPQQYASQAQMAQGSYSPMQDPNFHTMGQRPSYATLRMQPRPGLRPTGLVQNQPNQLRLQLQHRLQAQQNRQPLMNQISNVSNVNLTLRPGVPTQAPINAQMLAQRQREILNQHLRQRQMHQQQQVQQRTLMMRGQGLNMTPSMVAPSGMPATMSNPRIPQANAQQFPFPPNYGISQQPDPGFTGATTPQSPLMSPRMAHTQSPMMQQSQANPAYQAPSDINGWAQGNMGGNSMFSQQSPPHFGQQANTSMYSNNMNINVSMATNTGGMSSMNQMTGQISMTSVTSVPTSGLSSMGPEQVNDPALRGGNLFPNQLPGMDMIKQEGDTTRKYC
Sequence of Peroxisome proliferator-activated receptor gamma/Nuclear receptor coactivator 1 (P37231 whole entry): as the sequence (P37231 whole entry) above
Sequence of Peroxisome proliferator-activated receptor gamma/Nuclear receptor coactivator 1 (Q15788 whole entry, further chain): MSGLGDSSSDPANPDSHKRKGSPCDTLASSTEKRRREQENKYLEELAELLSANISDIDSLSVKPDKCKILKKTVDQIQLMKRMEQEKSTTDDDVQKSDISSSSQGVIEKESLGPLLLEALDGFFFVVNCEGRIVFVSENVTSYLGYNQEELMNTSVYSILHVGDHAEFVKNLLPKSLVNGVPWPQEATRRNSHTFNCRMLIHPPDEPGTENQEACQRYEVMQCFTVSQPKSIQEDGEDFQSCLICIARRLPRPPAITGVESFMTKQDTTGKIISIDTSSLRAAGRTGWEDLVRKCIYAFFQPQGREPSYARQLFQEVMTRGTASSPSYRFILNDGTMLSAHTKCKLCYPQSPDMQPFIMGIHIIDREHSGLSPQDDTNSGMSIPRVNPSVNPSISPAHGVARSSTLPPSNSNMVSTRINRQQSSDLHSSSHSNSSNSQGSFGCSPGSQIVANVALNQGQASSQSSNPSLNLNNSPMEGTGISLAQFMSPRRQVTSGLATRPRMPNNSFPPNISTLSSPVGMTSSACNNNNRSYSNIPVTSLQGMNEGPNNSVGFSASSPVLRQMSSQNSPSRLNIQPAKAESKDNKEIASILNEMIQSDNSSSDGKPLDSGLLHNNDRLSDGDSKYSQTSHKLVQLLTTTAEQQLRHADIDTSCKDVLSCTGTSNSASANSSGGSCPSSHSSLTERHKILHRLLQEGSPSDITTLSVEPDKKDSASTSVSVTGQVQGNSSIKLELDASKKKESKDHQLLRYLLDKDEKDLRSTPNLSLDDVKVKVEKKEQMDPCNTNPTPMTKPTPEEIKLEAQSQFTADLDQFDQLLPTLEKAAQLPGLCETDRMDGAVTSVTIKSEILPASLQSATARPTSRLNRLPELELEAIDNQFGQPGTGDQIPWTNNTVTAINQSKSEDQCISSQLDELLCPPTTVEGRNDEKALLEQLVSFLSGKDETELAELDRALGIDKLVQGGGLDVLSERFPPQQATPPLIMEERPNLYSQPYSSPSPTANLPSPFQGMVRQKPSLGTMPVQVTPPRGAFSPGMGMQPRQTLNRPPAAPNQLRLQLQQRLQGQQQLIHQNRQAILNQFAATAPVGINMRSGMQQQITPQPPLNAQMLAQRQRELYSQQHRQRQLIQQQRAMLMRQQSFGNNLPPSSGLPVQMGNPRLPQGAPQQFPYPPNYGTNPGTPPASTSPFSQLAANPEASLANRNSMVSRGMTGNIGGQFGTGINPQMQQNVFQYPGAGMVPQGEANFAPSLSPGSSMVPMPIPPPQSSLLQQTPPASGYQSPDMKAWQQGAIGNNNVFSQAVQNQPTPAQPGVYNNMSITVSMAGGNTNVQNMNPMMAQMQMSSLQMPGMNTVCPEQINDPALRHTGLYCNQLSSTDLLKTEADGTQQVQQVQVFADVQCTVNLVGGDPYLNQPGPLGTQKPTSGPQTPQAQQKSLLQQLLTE
Sequence of Luciferin 4-monooxygenase (P08659 whole entry): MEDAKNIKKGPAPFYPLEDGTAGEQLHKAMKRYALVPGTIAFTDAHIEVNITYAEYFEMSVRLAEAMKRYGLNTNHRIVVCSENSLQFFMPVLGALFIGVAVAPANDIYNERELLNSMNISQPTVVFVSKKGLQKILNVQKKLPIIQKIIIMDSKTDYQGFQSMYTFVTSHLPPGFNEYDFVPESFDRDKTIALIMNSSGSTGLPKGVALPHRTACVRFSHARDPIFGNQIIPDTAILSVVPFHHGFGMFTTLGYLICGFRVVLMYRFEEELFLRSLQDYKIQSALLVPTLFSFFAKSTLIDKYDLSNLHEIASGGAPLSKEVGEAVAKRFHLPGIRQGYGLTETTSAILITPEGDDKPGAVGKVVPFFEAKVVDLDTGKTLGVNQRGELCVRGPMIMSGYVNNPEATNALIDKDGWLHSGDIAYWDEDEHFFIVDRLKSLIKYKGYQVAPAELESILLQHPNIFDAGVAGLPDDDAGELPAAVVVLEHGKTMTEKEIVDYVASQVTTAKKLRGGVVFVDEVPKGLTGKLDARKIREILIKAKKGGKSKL
Sequence of Neuropeptide Y receptor type 1 (P25929 whole entry): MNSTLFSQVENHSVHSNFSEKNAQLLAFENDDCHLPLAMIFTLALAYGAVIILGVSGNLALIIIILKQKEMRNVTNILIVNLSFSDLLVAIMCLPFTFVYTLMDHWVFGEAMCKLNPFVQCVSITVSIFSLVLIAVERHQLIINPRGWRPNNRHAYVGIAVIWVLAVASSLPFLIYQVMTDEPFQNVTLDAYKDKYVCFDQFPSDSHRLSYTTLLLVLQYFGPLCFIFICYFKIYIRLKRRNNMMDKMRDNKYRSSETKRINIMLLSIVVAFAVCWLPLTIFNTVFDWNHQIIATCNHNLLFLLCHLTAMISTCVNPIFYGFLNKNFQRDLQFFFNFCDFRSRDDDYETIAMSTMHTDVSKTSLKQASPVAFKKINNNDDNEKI

Structure (SMILES): CCOc1cccc(C(=O)Nc2nnc(-c3cccs3)s2)c1
- EC50 [1]: 22.2 µM (not active)
- EC50 [2]: 24.1 µM (not active)
- EC50 [3]: 30.3 µM (not active)

Structure (SMILES): N#C/C(=N\Nc1ccc(S(=O)(=O)N2CCc3ccccc32)cc1)C(N)=S
- EC50 [4]: > 100 µM (active)
- AC50 [5]: 2.32 µM (active)
- EC50 [6]: 14.5 µM (active)
- EC50 [7]: 40 µM (active)
- EC50 [8]: 31.7 µM (active)
- EC50 [9]: > 150 µM (not active)

Structure (SMILES): CC(C)NC(=S)N/N=C/c1c[nH]c2ccccc12
- CC50 [10]: > 40 µM (active)
- IC50 [11]: > 100 µM (active)

Structure (SMILES): COc1cc(/C=N/NC(N)=O)ccc1OCC(=O)Nc1ccc(C)c(C)c1
- IC50 [12]: 9.83 µM (active)
- EC50 [13]: > 112 µM (not active)
- EC50 [14]: 11.4 µM (active)
- IC50 [15]: > 35 µM (not active)

Structure (SMILES): C[C@@H](C(=O)O)c1ccc(N2Cc3ccccc3C2=O)cc1 [(R)-INDOPROFEN]
- AC50 [16]: 7.94 µM (inconclusive)
- AC50 [17]: 10 µM (inconclusive)
